Measurements taken from ChEMBL document CHEMBL1201862, “PubChem BioAssay data set” (2004).
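Method: 48-hour compound exposure of cells in 96-well plates, five concentrations, linear interpolation of endpoints. Here, GI50 denotes the concentration required for 50% inhibition of growth.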 Calls of active or inactive are those of the source. Rule as the data show it: active = GI50 up to about 1.1 µM and inactive = higher.

Columns and labels:
Experiment in all cases: NCI tumour cell line growth inhibition, 48 h
ACHN = system: ACHN
HOP-92 = system: HOP-92
KM12 = system: KM12
LOX IMVI = system: LOX IMVI
MCF7 = system: MCF7
MDA-MB-231 = system: MDA-MB-231
MDA-N = system: MDA-N
Malme-3M = system: Malme-3M
NCI-H226 = system: NCI-H226
NCI-H23 = system: NCI-H23
NCI-H460 = system: NCI-H460
OVCAR-3 = system: OVCAR-3
SK-MEL-5 = system: SK-MEL-5
SNB-19 = system: SNB-19
SR = system: SR
SW-620 = system: SW-620
T47D = system: T47D
TK-10 = system: TK-10
UACC-62 = system: UACC-62
SF-268 = system: SF-268

Measured: GI50

CNC(=O)N(CCC#N)CCCN(C(=O)NC)c1ccccc1
inactive: ACHN > 100 µM | HOP-92 > 100 µM | KM12 > 100 µM | LOX IMVI > 100 µM | MCF7 > 100 µM | MDA-MB-231 > 100 µM | MDA-N > 100 µM | Malme-3M 51.4 µM | NCI-H226 > 100 µM | NCI-H23 > 100 µM | NCI-H460 > 100 µM | OVCAR-3 > 100 µM | SK-MEL-5 > 100 µM | SNB-19 > 100 µM | SR > 100 µM | SW-620 > 100 µM | T47D > 100 µM | TK-10 > 100 µM | UACC-62 > 100 µM

CN1CSC(=S)N(c2c3ccccc3nc3ccc(Br)cc23)C1
active: SR 0.796 µM
inactive: ACHN 6.59 µM | HOP-92 16.3 µM | KM12 7.11 µM | LOX IMVI 7.83 µM | MCF7 5.83 µM | MDA-MB-231 8.45 µM | MDA-N 10.4 µM | Malme-3M 16.7 µM | NCI-H226 10 µM | NCI-H23 10 µM | NCI-H460 3.83 µM | OVCAR-3 16.7 µM | SF-268 9.64 µM | SK-MEL-5 12.4 µM | SNB-19 12.5 µM | SW-620 3.89 µM | T47D 11.6 µM | TK-10 9.51 µM | UACC-62 14 µM

CC1=C(C)CC(C#N)(C#N)C(C#N)(C#N)C1
active: SR 0.0802 µM
inactive: ACHN > 8.79 µM | HOP-92 > 3.28 µM | KM12 > 10 µM | LOX IMVI > 10 µM | MCF7 > 5.65 µM | MDA-MB-231 > 10 µM | MDA-N > 4.78 µM | Malme-3M > 6.4 µM | NCI-H226 > 10 µM | NCI-H23 > 4.37 µM | NCI-H460 > 10 µM | OVCAR-3 > 5.52 µM | SF-268 > 10 µM | SK-MEL-5 > 6.19 µM | SNB-19 > 10 µM | SW-620 2.31 µM | T47D > 5.71 µM | TK-10 > 5.05 µM | UACC-62 > 6.58 µM

COc1ccc(C(O)CC(O)(C(F)(F)F)C(F)(F)F)cc1 (centres undefined)
inactive: ACHN 29.6 µM | HOP-92 15.8 µM | KM12 51.3 µM | LOX IMVI 18.2 µM | MCF7 61.4 µM | MDA-MB-231 20 µM | MDA-N 46.2 µM | Malme-3M 16.8 µM | NCI-H226 23.2 µM | NCI-H23 19.5 µM | NCI-H460 27.4 µM | OVCAR-3 22.2 µM | SF-268 39.9 µM | SK-MEL-5 21.2 µM | SNB-19 24.9 µM | SR 22.9 µM | SW-620 33 µM | T47D 41.8 µM | TK-10 44.7 µM | UACC-62 22.8 µM

O=C(NC(=S)Nc1ccc2c(c1)Sc1ccccc1O2)c1ccccc1
inactive: ACHN 31.3 µM | HOP-92 24.2 µM | KM12 29.5 µM | LOX IMVI 39.1 µM | MCF7 34.2 µM | MDA-MB-231 21.6 µM | MDA-N 3.94 µM | Malme-3M 23.1 µM | NCI-H226 53.7 µM | NCI-H23 30.8 µM | NCI-H460 48 µM | OVCAR-3 35.7 µM | SF-268 41.4 µM | SK-MEL-5 20.8 µM | SNB-19 34 µM | SR 3.67 µM | SW-620 32.1 µM | T47D 41.3 µM | TK-10 20.8 µM | UACC-62 22.5 µM

O1C2C1C1OC1C1OC1C1OC21 (centres undefined)
inactive: ACHN > 100 µM | HOP-92 > 100 µM | KM12 > 100 µM | LOX IMVI > 100 µM | MCF7 > 100 µM | MDA-MB-231 > 100 µM | MDA-N > 100 µM | Malme-3M > 100 µM | NCI-H226 > 100 µM | NCI-H23 > 100 µM | SF-268 > 100 µM | SK-MEL-5 > 100 µM | SNB-19 > 100 µM | SR > 100 µM | T47D > 100 µM | TK-10 > 100 µM | UACC-62 > 100 µM

CC1OC(=O)C(C(C)C)NC(=O)C(C(C)C)OC(=O)C(C(C)C)NC(=O)C(C)OC(=O)C(C(C)C)NC(=O)C(C(C)C)OC(=O)C(C(C)C)NC(=O)C(C)OC(=O)C(C(C)C)NC(=O)C(C(C)C)OC(=O)C(C(C)C)NC1=O (centres undefined)
active: ACHN < 0.0001 µM | HOP-92 0.00255 µM | KM12 0.00272 µM | LOX IMVI 0.00538 µM | MCF7 0.0025 µM | MDA-MB-231 < 0.0001 µM | MDA-N < 0.0001 µM | Malme-3M 0.0025 µM | NCI-H23 0.0025 µM | NCI-H460 0.00279 µM | OVCAR-3 0.0025 µM | SF-268 0.00314 µM | SNB-19 0.00349 µM | SR < 0.0001 µM | SW-620 0.0025 µM | T47D < 0.0001 µM | TK-10 < 0.0001 µM | UACC-62 0.0025 µM
